This is an account of results in patent US12071453B2, “Neuroactive steroids, compositions, and uses thereof” (Sage Therapeutics, Inc., priority 2013, dated 2024).

As a reminder, the IC50 is the concentration needed to halve the response being measured.

Bounds are passed on as bounds.

For the first assay, the target named is [35S]-TBPS binding in rat brain cortical membranes. Kind of assay: Steroid inhibition of [35S]-TBPS binding, rat brain cortical membranes. Particulars: 3 nM [35S]-TBPS, in the presence of 5 μM GABA, read-out: 35S-TBPS Radioligand Displacement (IC50). As to the method:
TBPS binding assays using rat brain cortical membranes in the presence of 5 μM GABA has been described (Gee et al, J. Pharmacol. Exp. Ther. 1987, 241, 346-353; Hawkinson et al, Mol. Pharmacol. 1994, 46, 977-985; Lewin, A. H et al., Mol. Pharmacol. 1989, 35, 189-194).
Briefly, cortices are rapidly removed following decapitation of carbon dioxide-anesthetized Sprague-Dawley rats (200-250 g). The cortices are homogenized in 10 volumes of ice-cold 0.32 M sucrose using a glass/teflon homogenizer and centrifuged at 1500×g for 10 min at 4° C. The resultant supernatants are centrifuged at 10,000×g for 20 min at 4° C. to obtain the P2 pellets. The P2 pellets are resuspended in 200 mM NaCl/50 mM Na—K phosphate pH 7.4 buffer and centrifuged at 10,000×g for 10 min at 4° C. This washing procedure is repeated twice and the pellets are resuspended in 10 volumes of buffer. Aliquots (100 μL) of the membrane suspensions are incubated with 3 nM [^35S]-TBPS and 5 μL aliquots of test drug dissolved in dimethyl sulfoxide (DMSO) (final 0.5%) in the presence of 5 μM GABA. The incubation is brought to a final volume of 1.0 mL with buffer. Nonspecific binding is determined in the presence of 2 μM unlabeled TBPS and ranged from 15 to 25%. Following a 90 min incubation at room temp, the assays are terminated by filtration through glass fiber filters (Schleicher and Schuell No. 32) using a cell harvester (Brandel) and rinsed three times with ice-cold buffer. Filter bound radioactivity is measured by liquid scintillation spectrometry. Non-linear curve fitting of the overall data for each drug averaged for each concentration is done using Prism (GraphPad). […] The concentration of test compound producing 50% inhibition (IC50) of specific binding and the maximal extent of inhibition (Imax) are determined for the individual experiments with the same model used for the overall data and then the mean±SEM.s of the individual experiments are calculated.
Various compounds are or can be screened to determine their potential as modulators of [^35S]-TBPS binding in vitro. These assays are or can be performed in accordance with the above discussed procedures.
(Displacement assays read how much labelled ligand stays bound in the presence of the test substance.)
`COC[C@]12CC[C@@](C)(O)C[C@@H]1CC[C@H]1[C@@H]3CC[C@H](C(=O)Cn4ncc5ncccc54)[C@@]3(C)CC[C@@H]12` [Compound 38]: the IC50 fell in the range of 0.05 to 0.1 µM.

Turning to `COC[C@]12CC[C@@](C)(O)C[C@@H]1CC[C@H]1[C@@H]3CC[C@H](C(=O)Cn4nnc5ccc(F)c(F)c54)[C@@]3(C)CC[C@@H]12` [Compound 115], the IC50 was 0.01 to 0.05 µM.

As to `COC[C@]12CC[C@@](C)(O)C[C@@H]1CC[C@H]1[C@@H]3CC[C@H](C(=O)Cn4ncc5ccc(F)cc54)[C@@]3(C)CC[C@@H]12` [Compound 110], the IC50 lay in the range of 0.05 to 0.1 µM.

Regarding `COC[C@]12CC[C@@H](O)C[C@@H]1CC[C@H]1[C@@H]3CC[C@H](C(=O)Cn4nccn4)[C@@]3(C)CC[C@@H]12` [Compound 90], the IC50 fell in the range of 0.05 to 0.1 µM.

With `C[C@@]1(O)CC[C@@]2(CO)[C@@H](CC[C@H]3[C@@H]4CC[C@H](C(=O)CN5CCN(S(C)(=O)=O)CC5)[C@@]4(C)CC[C@@H]32)C1` [Compound 7], the IC50 was over 0.5 µM.

`COC[C@]12CC[C@@](C)(O)C[C@@H]1CC[C@H]1[C@@H]3CC[C@H](C(=O)Cn4nnc5c(F)c(Cl)ccc54)[C@@]3(C)CC[C@@H]12` [Compound 138]: the half-inhibitory concentration (IC50) was in the range of 0.1 to 0.5 µM.

In the case of `C[C@@]1(O)CC[C@@]2(CO)[C@@H](CC[C@H]3[C@@H]4CC[C@H](C(=O)Cn5nccn5)[C@@]4(C)CC[C@@H]32)C1` [Compound 10], the IC50 is over 0.5 µM.

For `C[C@@]1(O)CC[C@@]2(CO)[C@@H](CC[C@H]3[C@@H]4CC[C@H](C(=O)Cn5cccn5)[C@@]4(C)CC[C@@H]32)C1` [Compound 11], the IC50 was over 0.5 µM.

For the compound `COC[C@]12CC[C@@](C)(O)C[C@@H]1CC[C@H]1[C@@H]3CC[C@H](C(=O)Cn4cc(C#N)cn4)[C@@]3(C)CC[C@@H]12` [Compound 127], the IC50 fell in the range of 0.01 to 0.05 µM.

Turning to `CC(=O)N1CCN(CC(=O)[C@H]2CC[C@H]3[C@@H]4CC[C@H]5C[C@](C)(O)CC[C@]5(CO)[C@H]4CC[C@]23C)CC1` [Compound 6], the IC50 was over 0.5 µM.

As for `COC[C@]12CC[C@](O)(C(F)(F)F)C[C@H]1CC[C@H]1[C@@H]3CC[C@H](C(=O)Cn4nc5ccc(F)c(F)c5n4)[C@@]3(C)CC[C@@H]12` [Compound 162], the IC50 was 0.1 to 0.5 µM.

Regarding `COC[C@]12CC[C@@](C)(O)C[C@@H]1CC[C@H]1[C@@H]3CC[C@H](C(=O)Cn4cccn4)[C@@]3(C)CC[C@@H]12` [Compound 2], the concentration for half-maximal inhibition (IC50) was over 0.5 µM.

`COC[C@]12CC[C@@](C)(O)C[C@@H]1CC[C@H]1[C@@H]3CC[C@H](C(=O)Cn4nnc5c(F)c(F)ccc54)[C@@]3(C)CC[C@@H]12` [Compound 114]: the IC50 was 0.01 to 0.05 µM.

For the compound `COC[C@]12CC[C@@](C)(O)C[C@H]1CC[C@H]1[C@@H]3CC[C@H](C(=O)Cn4cc(C)cn4)[C@@]3(C)CC[C@@H]12` [Compound 28], the IC50 was in the range of 0.05 to 0.1 µM.

In the case of `COC[C@]12CC[C@@](C)(O)C[C@@H]1CC[C@H]1[C@@H]3CC[C@H](C(=O)Cn4nnc5cc(OC(F)(F)F)ccc54)[C@@]3(C)CC[C@@H]12` [Compound 146], the IC50 lay in the range of 0.05 to 0.1 µM.

In the case of `COC[C@]12CC[C@@](C)(O)C[C@@H]1CC[C@H]1[C@@H]3CC[C@H](C(=O)CN4CCN(C(C)=O)CC4)[C@@]3(C)CC[C@@H]12` [Compound 5], the IC50 is over 0.5 µM.

Regarding `CCOC[C@]12CC[C@@](C)(O)C[C@@H]1CC[C@H]1[C@@H]3CC[C@H](C(=O)Cn4cc(C#N)cn4)[C@@]3(C)CC[C@@H]12` [Compound 171], the IC50 is 0.01 to 0.05 µM.

Take `COC[C@]12CC[C@@](C)(O)C[C@@H]1CC[C@H]1[C@@H]3CC[C@H](C(=O)Cn4nc5ccccc5n4)[C@@]3(C)CC[C@@H]12` [Compound 40]: the IC50 fell in the range of 0.01 to 0.05 µM.

For `COC[C@]12CC[C@](O)(C(F)(F)F)C[C@H]1CC[C@H]1[C@@H]3CC[C@H](C(=O)Cn4nnc5c(F)c(F)ccc54)[C@@]3(C)CC[C@@H]12` [Compound 161], the IC50 lay within 0.1 to 0.5 µM.

Turning to `COC[C@]12CC[C@@](C)(O)C[C@H]1CC[C@H]1[C@@H]3CC[C@H](C(=O)Cn4nnc5c(F)cccc54)[C@@]3(C)CC[C@@H]12` [Compound 157], the 50% inhibitory concentration (IC50) was 0.01 to 0.05 µM.

Turning to `C[C@@]1(O)CC[C@@]2(CO)[C@@H](CC[C@H]3[C@@H]4CC[C@H](C(=O)CN5CCOCC5)[C@@]4(C)CC[C@@H]32)C1` [Compound 9], the IC50 was over 0.5 µM.

In the case of `COC[C@]12CC[C@@](C)(O)C[C@@H]1CC[C@H]1[C@@H]3CC[C@H](C(=O)Cn4nc5ccc(F)c(F)c5n4)[C@@]3(C)CC[C@@H]12` [Compound 128], the IC50 is under 0.01 µM.

`C[C@@]1(O)CC[C@@]2(CO)[C@@H](CC[C@H]3[C@@H]4CC[C@H](C(=O)Cn5ccnn5)[C@@]4(C)CC[C@@H]32)C1` [Compound 12]: the IC50 is over 0.5 µM.

On to `COC[C@]12CC[C@@](C)(O)C[C@@H]1CC[C@H]1[C@@H]3CC[C@H](C(=O)CN4CCOCC4)[C@@]3(C)CC[C@@H]12` [Compound 4], for which the IC50 is over 0.5 µM.

On to `COC[C@]12CC[C@@H](O)C[C@@H]1CC[C@H]1[C@@H]3CC[C@H](C(=O)Cn4cc(C)cn4)[C@@]3(C)CC[C@@H]12` [Compound 93], for which the half-inhibitory concentration (IC50) lay in the range of 0.1 to 0.5 µM.

In the case of `COC[C@]12CC[C@@H](O)C[C@@H]1CC[C@H]1[C@@H]3CC[C@H](C(=O)Cn4ccnn4)[C@@]3(C)CC[C@@H]12` [Compound 91], the IC50 lay within 0.1 to 0.5 µM.

With `CCOC(=O)c1ccn(CC(=O)[C@H]2CC[C@H]3[C@@H]4CC[C@H]5C[C@H](O)CC[C@]5(COC)[C@H]4CC[C@]23C)n1` [Compound 92], the IC50 was 0.01 to 0.05 µM.

Consider `COC[C@]12CC[C@@](C)(O)C[C@@H]1CC[C@H]1[C@@H]3CC[C@H](C(=O)Cn4cc5nccnc5n4)[C@@]3(C)CC[C@@H]12` [Compound 154], for which the concentration for half-maximal inhibition (IC50) was over 0.5 µM.

With `COC[C@]12CC[C@@](C)(O)C[C@@H]1CC[C@H]1[C@@H]3CC[C@H](C(=O)Cn4nnc5ccc(OC(F)(F)F)cc54)[C@@]3(C)CC[C@@H]12` [Compound 144], the concentration for half-maximal inhibition (IC50) lay within 0.05 to 0.1 µM.

Consider `COC[C@]12CC[C@@](C)(O)C[C@@H]1CC[C@H]1[C@@H]3CC[C@H](C(=O)Cn4ncc5nccnc54)[C@@]3(C)CC[C@@H]12` [Compound 155], for which the concentration for half-maximal inhibition (IC50) was in the range of 0.05 to 0.1 µM.

The next assay deals with T1, GABAA receptors composed of the α1β2γ2 subunits (GABRA1/GABRB2/GABRG2) (Homo sapiens, UniProt P14867+P47870).
T1 construct: expressed in transfected cells; host or cells: Xenopus laevis oocytes, injected (ratio 1:1:1)
T1 sequence (P14867 28-456): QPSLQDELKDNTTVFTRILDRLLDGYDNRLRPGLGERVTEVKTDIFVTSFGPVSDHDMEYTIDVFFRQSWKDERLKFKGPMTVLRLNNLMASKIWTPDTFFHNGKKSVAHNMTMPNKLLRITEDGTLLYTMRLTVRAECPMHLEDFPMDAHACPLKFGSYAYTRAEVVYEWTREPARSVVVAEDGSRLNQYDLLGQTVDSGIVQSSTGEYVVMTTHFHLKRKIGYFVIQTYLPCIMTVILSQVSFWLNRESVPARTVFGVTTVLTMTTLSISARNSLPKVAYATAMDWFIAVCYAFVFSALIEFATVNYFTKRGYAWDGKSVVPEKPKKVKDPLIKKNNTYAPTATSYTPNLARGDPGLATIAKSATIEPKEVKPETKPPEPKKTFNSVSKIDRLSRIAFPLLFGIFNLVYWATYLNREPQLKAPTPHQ
T1 sequence (P47870 26-512): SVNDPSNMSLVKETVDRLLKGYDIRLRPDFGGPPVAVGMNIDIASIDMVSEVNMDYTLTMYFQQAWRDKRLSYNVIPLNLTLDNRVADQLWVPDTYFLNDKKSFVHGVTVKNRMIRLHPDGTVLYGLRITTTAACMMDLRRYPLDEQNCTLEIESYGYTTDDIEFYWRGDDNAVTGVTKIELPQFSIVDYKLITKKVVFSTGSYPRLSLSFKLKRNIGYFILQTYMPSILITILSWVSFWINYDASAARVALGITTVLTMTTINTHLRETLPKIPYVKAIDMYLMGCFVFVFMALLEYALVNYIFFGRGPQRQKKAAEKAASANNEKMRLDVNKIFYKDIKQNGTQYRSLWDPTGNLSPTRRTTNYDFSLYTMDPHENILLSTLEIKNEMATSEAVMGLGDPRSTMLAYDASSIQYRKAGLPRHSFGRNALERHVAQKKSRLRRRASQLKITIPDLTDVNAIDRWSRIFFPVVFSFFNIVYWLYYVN
T1 sequence (P18507 40-475 partner): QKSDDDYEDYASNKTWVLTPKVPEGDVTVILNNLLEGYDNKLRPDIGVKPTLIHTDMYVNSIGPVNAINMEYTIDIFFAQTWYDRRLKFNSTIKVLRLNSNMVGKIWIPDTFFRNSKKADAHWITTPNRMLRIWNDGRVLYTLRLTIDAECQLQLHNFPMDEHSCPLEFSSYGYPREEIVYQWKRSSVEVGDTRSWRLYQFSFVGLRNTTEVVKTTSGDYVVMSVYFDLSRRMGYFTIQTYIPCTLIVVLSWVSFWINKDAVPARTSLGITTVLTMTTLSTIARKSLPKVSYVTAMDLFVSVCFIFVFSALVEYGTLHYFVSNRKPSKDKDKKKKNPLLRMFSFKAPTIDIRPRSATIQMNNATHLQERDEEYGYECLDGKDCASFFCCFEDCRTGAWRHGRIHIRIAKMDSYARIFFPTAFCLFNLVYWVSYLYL
The experiment in a line: Two Electrode Voltage Clamp (TEVC), GABA receptor potentiation in Xenopus laevis oocytes, α1β2γ2. The format is cell-based. The conditions noted are these: 10 μM compound, 10 μM GABA, read-out: GABA (α1β2γ2) % efficacy at 10 μM. Here is the method: The Two Electrode Voltage Clamp (TEVC) technique was used to investigate the effects of compounds at a concentration of 10 μM on GABAA receptors composed of the α1β2γ2 or α4β3δ subunits expressed in oocytes from the Xenopus laevis. GABA-evoked currents were recorded from oocytes that expressed the GABA receptors and the modulatory effects of the test items on these currents were investigated.
Ovaries were harvested from Xenopus laevis females that had been deeply anesthetized by cooling at 4° C. and immersion in Tricaine methanesulfonate (MS-222 at a concentration of 150 mg/L) in sodium bicarbonate (300 mg/L). Once anesthetized the animal was decapitated and pithed following the rules of animal rights from the Geneva canton. A small piece of ovary was isolated for immediate preparation while the remaining part was placed at 4° C. in a sterile Barth solution containing in mM NaCl 88, KCl 1, NaHCO3 2.4, HEPES 10, MgSO4·7H2O 0.82, Ca(NO3)2·4H2O 0.33, CaCl2·6H2O 0.41, at pH 7.4, and supplemented with 20 μg/ml of kanamycin, 100 unit/ml penicillin and 100 μg/ml streptomycin. All recordings were performed at 18° C. and cells were super-fused with medium containing in mM: NaCl 82.5, KCl 2.5, HEPES 5, CaCl2·2H2O, ·6H2O 1, pH 7.4.
Plasmids containing the RNAs of the human GABRA1/GABRB2/GABRG2 and GABRA4/GABRB3/GABRD genes were injected into oocytes using a proprietary automated injection device (Hogg el al., J. Neurosci. Methods, (2008) 169: 65-75). These genes encode for the α1β2γ2 and α4β3δ GABAA subunits respectively. Receptor expression was assessed using electrophysiology at least two days later. The ratio of RNA injection for α1β2γ2 was 1:1:1 and for α4β3δ was 5:1:5. Electrophysiological recordings were made using an automated process equipped with standard TEVC and data were captured and analyzed using a proprietary data acquisition and analysis software running under Matlab (Mathworks Inc.). The membrane potential of the oocytes was maintained at −80 mV throughout the experiments. To explore the effects of proprietary compounds, currents were evoked by applying 10 μM (α1β2γ2) or 3 μM (α4β3δ) GABA for 30 s. These concentrations approximated the EC50 concentration of GABA at each receptor subtype. Oocytes were then re-exposed to GABA again for 30 s. 15 s after beginning the GABA application, test article was co-applied at a concentration of 10 μM for 15 s. Potentiation of the peak current was assessed. Data was filtered at 10 Hz, captured at 100 Hz and analyzed using proprietary data acquisition and analysis software running under Matlab (Mathworks Inc.). For statistical analysis values were computed either with Excel (Microsoft) or Matlab (mathworks Inc.). To obtain mean measurements with standard deviations, all experiments were carried out using at least three cells.
For the compound `COC[C@]12CC[C@@](C)(O)C[C@@H]1CC[C@H]1[C@@H]3CC[C@H](C(=O)Cn4ncc5ncccc54)[C@@]3(C)CC[C@@H]12` [Compound 38], the Emax at 10 µM fell in the range of 500 to 1000%.

`COC[C@]12CC[C@@](C)(O)C[C@@H]1CC[C@H]1[C@@H]3CC[C@H](C(=O)Cn4ncc5ccc(F)cc54)[C@@]3(C)CC[C@@H]12` [Compound 110]: the Emax at 10 µM fell in the range of 500 to 1000%.

In the case of `COC[C@]12CC[C@@](C)(O)C[C@@H]1CC[C@H]1[C@@H]3CC[C@H](C(=O)Cn4cc(C)cn4)[C@@]3(C)CC[C@@H]12` [Compound 20], the Emax at 10 µM fell in the range of 500 to 1000%.
